Experiments:
[1] = tested on: control sera (pooled serum of ten healthy LUMC hospital workers; commercial negative donor pooled serum from the Dutch bloodbank); format: binding, human; set-up: Binding of Control serum LUMC to linear peptides / Binding of Control serum Blood-bank to linear peptides / Binding of Control serum LUMC to looped peptides / Binding of Control Serum Blood-Bank to Looped peptides / Binding of Control serum LUMC to linear peptides of the protein M of SARS-CoV Urbani / Binding of Control serum Blood-bank to linear peptides of the protein M of SARS-CoV Urbani / Binding of Control serum LUMC to looped peptides of the protein M of SARS-CoV Urbani / Binding of Control Serum Blood-Bank to Looped peptides of the protein M of SARS-CoV Urbani: unit not given here
[2] = tested on: antibodies in sera from SARS patients (sera 1a, 1b, 2, 6, 37, 62, London, SARS-yellow, SARS-green); format: binding, human; set-up: Binding of serum 6 to linear peptides of protein X1 of SARS-CoV Urbani / Binding of serum 37 to linear peptides of protein X1 of SARS-CoV Urbani / Binding of serum 6 to looped/cyclic peptide (PEPSCAN-ELISA) / Binding of serum 37 to looped/cyclic peptide (PEPSCAN-ELISA) / Binding of serum 37 to looped/cyclic peptides of protein X1 of SARS-CoV Urbani / Binding of serum 6 to linear peptides of protein X2 / Binding of serum 37 to linear peptides of protein X2 / Binding of serum 37 to looped/cyclic peptides of protein X2 of SARS-CoV Urbani / Binding of serum 6 to linear peptides of protein M of SARS-CoV Urbani / Binding of serum 37 to linear peptides of protein M of SARS-CoV Urbani / Binding of serum 6 to looped/cyclic peptides of protein M of SARS-CoV Urbani / Binding of serum 37 to looped/cyclic peptides of protein M of SARS-CoV Urbani / Binding of serum 6 to linear peptides of protein X3 of SARS-CoV Urbani / Binding of serum 37 to linear peptides of protein X3 of SARS-CoV Urbani / Binding of serum 37 to looped/cyclic peptides of protein X3 of SARS-CoV Urbani / Binding of serum 6 to linear peptides of protein X4 of SARS-CoV Urbani / Binding of serum 37 to linear peptides of protein X4 of SARS-CoV Urbani / Binding of serum 37 to looped/cyclic peptides of protein X4 of SARS-CoV Urbani / Binding of serum 6 to linear peptides of protein X5 of SARS-CoV Urbani / Binding of serum 37 to linear peptides of protein X5 of SARS-CoV Urbani / Binding of serum 37 to looped/cyclic peptides of protein X5 of SARS-CoV Urbani / Binding of serum 6 to linear peptides of protein N of SARS-CoV Urbani / Binding of serum 37 to linear peptides of protein N of SARS-CoV Urbani / Binding of serum 6 to linear peptide (PEPSCAN-ELISA) / Binding of serum 1a to looped/cyclic peptides of protein N of SARS-CoV Urbani / Binding of serum 1b to looped/cyclic peptides of protein N of SARS-CoV Urbani / Binding of serum 2 to looped/cyclic peptides of protein N of SARS-CoV Urbani / Binding of serum 6 to looped/cyclic peptides of protein N of SARS-CoV Urbani / Binding of serum 37 to looped/cyclic peptides of protein N of SARS-CoV Urbani / Binding of serum 62 to looped/cyclic peptides of protein N of SARS-CoV Urbani / Binding of serum London to looped/cyclic peptides of protein N of SARS-CoV Urbani / Binding of serum SARS-green to looped/cyclic peptides of protein N of SARS-CoV Urbani: unit not given here
[3] = tested on: rabbit serum obtained by immunizing a rabbit with the SARS-CoV strain Frankfurt 1; format: binding; set-up: Binding of a rabbit serum to linear peptides / Binding of a rabbit serum to looped peptides / Rabbit serum linear peptides / Rabbit serum looped peptides / Binding of a rabbit serum to linear peptides of protein N of SARS-CoV Urbani (Rabbit serum linear peptides) / Binding of a rabbit serum to looped/cyclic peptides of protein N of SARS-CoV Urbani (Rabbit serum looped peptides): unit not given here
[4] = tested on: recombinant human anti-SARS-CoV antibody 03-018; format: binding; set-up: Binding of antibody 03-018 to linear peptides of the N protein of SARS-CoV Urbani / Binding of antibody 03-018 to looped/cyclic peptides of the N protein of SARS-CoV Urbani: unit not given here

Sequence | Binding of Control Serum Blood-Bank to Looped peptides [1] | Binding of Control serum Blood-bank to linear peptides [1] | Binding of Control serum LUMC to linear peptides [1] | Binding of Control serum LUMC to looped peptides [1] | Binding of serum 1a to linear peptides of protein N of SARS-CoV Urbani [2] | Binding of serum 1a to looped/cyclic peptides of protein N of SARS-CoV Urbani [2] | Binding of serum 1b to linear peptides of protein N of SARS-CoV Urbani [2] | Binding of serum 1b to looped/cyclic peptides of protein N of SARS-CoV Urbani [2] | Binding of serum 2 to linear peptides of protein N of SARS-CoV Urbani [2] | Binding of serum 2 to looped/cyclic peptides of protein N of SARS-CoV Urbani [2] | Binding of serum 6 to looped/cyclic peptides of protein N of SARS-CoV Urbani [2] | Binding of serum 37 to looped/cyclic peptides of protein N of SARS-CoV Urbani [2] | Binding of serum 62 to looped/cyclic peptides of protein N of SARS-CoV Urbani [2] | Binding of serum London to looped/cyclic peptides of protein N of SARS-CoV Urbani [2] | Binding of serum SARS-green to looped/cyclic peptides of protein N of SARS-CoV Urbani [2] | Binding of serum SARS-yellow to looped/cyclic peptides of protein N of SARS-CoV Urbani [2] | Binding of a rabbit serum to linear peptides of protein N of SARS-CoV Urbani (Rabbit serum linear peptides) [3] | Binding of a rabbit serum to looped/cyclic peptides of protein N of SARS-CoV Urbani (Rabbit serum looped peptides) [3] | Binding of antibody 03-018 to linear peptides of the N protein of SARS-CoV Urbani [4] | Binding of antibody 03-018 to looped/cyclic peptides of the N protein of SARS-CoV Urbani [4] | also measured
WFTALTQHGKEELRF | 0.6 | 0.8 | 0.7 | 0.5 | 0.3 | 0.4 | 0.2 | 0.2 | 0.3 | 0.4 | 0.2 | 0.8 | 0.6 | 0.4 | 0.5 | 0.4 | 0.1 | 0.3 | 0.1 | 0.2 | Binding of serum 6 to linear peptides of protein N of SARS-CoV Urbani [2]: 0.2; Binding of serum 37 to linear peptides of protein N of SARS-CoV Urbani [2]: 1.2; Binding of serum 62 to linear peptides of protein N of SARS-CoV Urbani [2]: 0.9; Binding of serum London to linear peptides of protein N of SARS-CoV Urbani [2]: 0.7; Binding of serum SARS-green to linear peptides of protein N of SARS-CoV Urbani [2]: 0.4; Binding of serum SARS-yellow to linear peptides of protein N of SARS-CoV Urbani [2]: 0.5
WVATEGALNTPKDHI | 0.5 | 0.8 | 0.9 | 0.5 | 0.2 | 0.3 | 0.1 | 0.2 | 0.3 | 0.3 | 0.2 | 0.5 | 0.4 | 0.4 | 0.4 | 0.2 | 0.1 | 0.2 | 0.1 | 0.2 | Binding of serum 6 to linear peptides of protein N of SARS-CoV Urbani [2]: 0.2; Binding of serum 37 to linear peptides of protein N of SARS-CoV Urbani [2]: 0.7; Binding of serum 62 to linear peptides of protein N of SARS-CoV Urbani [2]: 0.9; Binding of serum London to linear peptides of protein N of SARS-CoV Urbani [2]: 0.6; Binding of serum SARS-green to linear peptides of protein N of SARS-CoV Urbani [2]: 0.6; Binding of serum SARS-yellow to linear peptides of protein N of SARS-CoV Urbani [2]: 0.6
GKMKELSPRWYFYYL | 0.8 | 0.6 | 0.6 | 0.7 | 0.2 | 0.3 | 0.1 | 0.2 | 0.1 | 0.5 | 0.4 | 0.8 | 0.8 | 0.7 | 0.4 | 0.6 | 0.1 | 0.7 | 0.1 | 0.3 | Binding of serum 6 to linear peptides of protein N of SARS-CoV Urbani [2]: 0.1; Binding of serum 37 to linear peptides of protein N of SARS-CoV Urbani [2]: 0.5; Binding of serum 62 to linear peptides of protein N of SARS-CoV Urbani [2]: 0.5; Binding of serum London to linear peptides of protein N of SARS-CoV Urbani [2]: 0.4; Binding of serum SARS-green to linear peptides of protein N of SARS-CoV Urbani [2]: 0.2; Binding of serum SARS-yellow to linear peptides of protein N of SARS-CoV Urbani [2]: 0.6
QQQGQTVTKKSAAEA | 0.6 | 0.6 | 0.5 | 0.6 | – | 0.5 | – | 0.3 | – | 0.7 | 0.5 | 0.6 | 0.7 | 0.6 | 0.9 | 0.6 | 0.0 | 0.0 | 0.1 | 0.2 | Binding of serum 1a to linear peptide (PEPSCAN-ELISA) [2]: 0.6; Binding of serum 1b to linear peptide (PEPSCAN-ELISA) [2]: 0.2; Binding of serum 2 to linear peptide (PEPSCAN-ELISA) [2]: 0.5; Binding of serum 6 to linear peptide (PEPSCAN-ELISA) [2]: 0.2; Binding of serum 37 to linear peptide (PEPSCAN-ELISA) [2]: 0.5; Binding of serum 62 to linear peptide (PEPSCAN-ELISA) [2]: 0.5; Binding of serum London to linear peptide (PEPSCAN-ELISA) [2]: 0.6; Binding of serum SARS-green to linear peptide (PEPSCAN-ELISA) [2]: 0.3; Binding of serum SARS-yellow to linear peptide (PEPSCAN-ELISA) [2]: 0.6
